The text below walks through data of article PMC2789240, “Comparative structural, kinetic and inhibitor studies of Trypanosoma brucei trypanothione reductase with T. cruzi^” (Molecular and Biochemical Parasitology, 2010).

For orientation: IC50 means the concentration needed to halve the response being measured. As usually defined, the EC50 is the concentration needed to bring the measured effect to its halfway point. As a reminder, the Km is the substrate concentration at which the rate is half of its maximum.

Where two headings read alike, the source gives them in different places.

Test [1] has as its system African trypanosomiasis. Details: method as in PMID 3503414. Particulars: 50 mg kg^-1, i.p.; cited from earlier work.
The target in test [2] is T1, TcTryR (recombinant T. cruzi trypanothione reductase) (Trypanosoma cruzi, UniProt P28593).
T1 construct: made in house
T1 sequence (P28593 whole entry): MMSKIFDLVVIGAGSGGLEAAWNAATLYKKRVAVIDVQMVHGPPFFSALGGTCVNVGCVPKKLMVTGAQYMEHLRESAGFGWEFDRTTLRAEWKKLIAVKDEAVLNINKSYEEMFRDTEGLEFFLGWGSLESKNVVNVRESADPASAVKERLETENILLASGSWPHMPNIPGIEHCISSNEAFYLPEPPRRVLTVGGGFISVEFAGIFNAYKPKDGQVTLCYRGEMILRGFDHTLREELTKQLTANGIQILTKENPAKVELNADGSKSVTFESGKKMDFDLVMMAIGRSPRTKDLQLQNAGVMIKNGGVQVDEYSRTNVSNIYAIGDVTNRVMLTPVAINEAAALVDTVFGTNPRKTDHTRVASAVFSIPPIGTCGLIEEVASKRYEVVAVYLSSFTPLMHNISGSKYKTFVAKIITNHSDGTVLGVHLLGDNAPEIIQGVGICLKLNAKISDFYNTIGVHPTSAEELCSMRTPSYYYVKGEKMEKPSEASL
The test is described as follows: 412 nm DTNB-coupled trypanothione reductase assay (IC50, Km). Format: biochemical. The conditions noted are these: 412 nm assay, T(S)2 at S = Km (10.4 μM), weighted mean of three occasions. As for the experimental part:
Assay plates were prepared using a Precision2000 liquid handler (Bio-Tek) with a final DMSO concentration of 1% in all wells. Plates contained a 10-point serial dilution (2-fold or 3-fold dilutions) across columns 2–11 with a top concentration of 100 μM or 200 μM. […] Column 1 contained full signal controls (no inhibitor) and column 12 contained background controls (no enzyme). […] Z′ figures were calculated from the full signal and background controls.

Test [3] addresses T2, TbTryR (recombinant T. b. brucei trypanothione reductase) (Trypanosoma brucei brucei, UniProt Q389T8). The test is described as follows: biochemical.
The test system of test [4] is Bloodstream form T. b. brucei cells (strain 427, 'single marker'). The test is described as follows: Growth inhibition of bloodstream form T. b. brucei (resazurin). Format: cell-based. The conditions noted are these: Trypanosoma brucei, 72 h, 3 days incubation, weighted mean of three experiments. (In general: Alamar Blue is a resazurin reagent that responds to reducing activity.)
Protocol: Bloodstream form T. b. brucei cells (strain 427, ‘single marker’) were grown at 37 °C and 5% CO2 in a modified HMI9 [21] (HMI9-T where 0.2 mM 2-mercaptoethanol was replaced with 0.056 mM thioglycerol). Stock cultures were maintained in T75 vented cap culture flasks (Greiner, Kremsmuenster, Austria) and sub-cultured every 48–72 h by dilution into fresh medium. For microtitre plate assays, cells were counted using a Casy cell counter TT (Schärfe systems) and diluted appropriately. Compounds were tested in 96-well test plates (Greiner). The final conditions were 50–0.07 μM test compound (9-point 3-fold serial dilutions), 0.5% DMSO, 10^3 ml^−1 cells in a total volume of 0.2 ml. Plates were incubated for 3 days, resazurin was added to a final concentration of 45 μM and plates incubated for a further 4 h. Fluorescence was measured at 528 nm excitation and 590 nm emission. EC50 values were determined in three separate experiments and the data reported as weighted means.

The test system of test [5] is TbTryR (recombinant T. b. brucei trypanothione reductase).
The target in test [6] is T2, TbTryR (recombinant T. b. brucei trypanothione reductase). The conditions noted are these: 150 μM NADH as electron donor, 412 nm assay.
Test [7] concerns Bloodstream form T. b. brucei cells (strain 427, 'single marker'). Particulars: cited from earlier work.
Test [8] relates to L. donovani trypanothione reductase. Further details: method as in PMID 7607216. Particulars: read-out: Km T(S)2 (by NADPH oxidation); cited from earlier work.
Test [9] concerns African trypanosomiasis. Further details: method as in Halliburton and Fairlamb, unpublished. Particulars: 50 mg kg^-1, i.p., acute mouse model; ref Halliburton and Fairlamb, unpublished; cited from earlier work.
In the next test the target is TbTryR (Trypanosoma brucei brucei, UniProt Q389T8). The test is described as follows: Modified 412 nm DTNB-coupled assay with NADPH regeneration by glucose-6-phosphate dehydrogenase. Format: biochemical. The conditions noted are these: NADPH-regenerating system, 6 μM T(S)2. As to the method:
In order to determine Km with respect to NADPH using the 412 nm DTNB assay, NADPH levels were maintained constant using glucose-6-phosphate and glucose-6-phosphate dehydrogenase from Saccharomyces cerevisiae. […] The final assay mixture contained 40 mM HEPES pH 7.4, 1 mM EDTA, ∼10 mU ml^−1 TryR, 6 μM T(S)2, 50 μM DTNB and 0.2–200 μM NADPH (7-point 3-fold serial dilution). Assays were initiated by addition of the NADPH. Km values with respect to NADPH were determined for TbTryR in three independent experiments and a weighted mean calculated.

The mark [10] stands for this setting: ratio of IC50 values at respective S = Km.

T2 sequence (Q389T8 entry or part of it): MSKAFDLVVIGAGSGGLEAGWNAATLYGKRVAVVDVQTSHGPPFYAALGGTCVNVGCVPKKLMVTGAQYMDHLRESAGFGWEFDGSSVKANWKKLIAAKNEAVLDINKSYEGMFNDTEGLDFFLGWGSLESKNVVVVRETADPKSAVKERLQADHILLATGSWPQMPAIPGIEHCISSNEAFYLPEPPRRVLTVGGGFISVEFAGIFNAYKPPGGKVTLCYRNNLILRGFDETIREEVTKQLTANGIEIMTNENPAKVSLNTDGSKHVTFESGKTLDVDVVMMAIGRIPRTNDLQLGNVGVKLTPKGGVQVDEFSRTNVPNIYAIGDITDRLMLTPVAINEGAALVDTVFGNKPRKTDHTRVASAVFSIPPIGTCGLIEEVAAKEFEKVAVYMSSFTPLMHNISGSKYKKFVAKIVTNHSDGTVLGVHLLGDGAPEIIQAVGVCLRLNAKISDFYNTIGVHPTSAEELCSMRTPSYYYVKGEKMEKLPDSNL
Sequence of TbTryR (Q389T8 entry or part of it): as above

For the compound `CSc1ccc2c(c1)N(CCC1CCCCN1C)c1ccccc1S2` (centres unmarked) [Thioridazine], in the test on African trypanosomiasis [1], the “activity in the chronic mouse model of African trypanosomiasis” value is “inactive”.

Turning to `CN(C)CCCC1(c2ccc(F)cc2)OCc2cc(C#N)ccc21` (centres unmarked) [Citalopram], the 50% inhibitory concentration (IC50) in test [2] is 154 ± 5.42 µM; in test [3], 82.3 ± 6.35 µM. In test [4], this compound showed a half-maximal effective concentration (EC50) of 6.59 ± 0.54 µM. Moreover, the “Ratio Tc/Tb (IC50 TcTryR / IC50 TbTryR)” value in test [5] (setting [10]) worked out at 1.9.

Turning to `NC(=O)C1=CN([C@@H]2O[C@H](COP(=O)(O)OP(=O)(O)OC[C@H]3O[C@@H](n4cnc5c(N)ncnc54)[C@H](O)[C@@H]3O)[C@@H](O)[C@H]2O)C=CC1` [NADH], in [6], the “Activity relative to that obtained with 150 μM NADPH” value is reported as 5.7%.

On to `CN1CCN(CCCN2c3ccccc3Sc3ccc(C(F)(F)F)cc32)CC1` [Trifluoperazine], for which the concentration for half-maximal inhibition (IC50) in [2] was determined as 20.9 ± 0.9 µM. The same compound showed an EC50 in test [4] of 2.11 ± 0.5 µM. The “activity in the chronic mouse model of African trypanosomiasis” value in the test with African trypanosomiasis [1] was “inactive”.

Consider `CCN(CC)CCCC(C)Nc1c2ccc(Cl)cc2nc2ccc(OC)cc12` (centres unmarked) [Quinacrine], for which the IC50 in test [2] came out at 37.8 ± 1.91 µM; in test [3], 22.1 ± 2.05 µM. Besides, the “Ratio Tc/Tb (IC50 TcTryR / IC50 TbTryR)” value in test [5] turned out to be 1.7.

As to `O=c1c2ccccc2[se]n1-c1ccccc1` [Ebselen], the EC50 in test [7] (ref Richardson et al. [33]) was 2.97 µM. The results for the IC50 in [2] and in test [3] were 0.6 ± 0.01 µM and 0.18 ± 0.01 µM, respectively. Further, the “Ratio Tc/Tb (IC50 TcTryR / IC50 TbTryR)” value in [5] (setting [10]) was 3.3.

With `CN(C)CCC(=O)c1ccc(S(C)(=O)=O)cc1` [DM5a], the EC50 in test [7] (ref Martyn et al. [19]) was 0.55 ± 0.04 µM. Moreover, the IC50 in test [2] was determined as 16.9 ± 1.08 µM; in test [3] it was 6.8 ± 0.42 µM. For the same compound, the “Ratio Tc/Tb (IC50 TcTryR / IC50 TbTryR)” value in test [5] (setting [10]) is 2.5.

In the case of `CC(C)(C)c1cc(CN(CCO)CCO)cc(C(C)(C)C)c1O` [DM7a], the EC50 in test [7] (ref Martyn et al. [19]) was 3.01 ± 0.3 µM. For the same compound, the IC50 turned out to be 27.8 ± 2.08 µM in [2] and 19.2 ± 1.75 µM in test [3]. Also, the “Ratio Tc/Tb (IC50 TcTryR / IC50 TbTryR)” value in test [5] (setting [10]) stood at 1.4.

Take `CN(C)CCC(=O)c1cccc([N+](=O)[O-])c1` [DM6a]: in [7] (ref Martyn et al. [19]), the 50% effective concentration (EC50) is 0.68 ± 0.1 µM. Further, the values for the 50% inhibitory concentration (IC50) in [2] and in test [3] were 3.8 ± 0.2 µM and 3.2 ± 0.16 µM, respectively. For the same compound, in test [5] (setting [10]), the “Ratio Tc/Tb (IC50 TcTryR / IC50 TbTryR)” value was 1.2.

For `N[C@@H](CCC(=O)N[C@H]1CSSC[C@H](NC(=O)CC[C@H](N)C(=O)O)C(=O)NCC(=O)NCCCNCCCCNC(=O)CNC1=O)C(=O)O` [T(S)2, trypanothione disulphide], in [8], the Michaelis constant (Km) was 36 µM.

With `CN(C)CCC(=O)c1ccc(Cl)c(Cl)c1` [DM8a], the EC50 in test [7] (ref Martyn et al. [19]) is 1 ± 0.21 µM. Moreover, the IC50 in test [2] is 7.99 ± 0.51 µM; in [3] it was 3.17 ± 0.17 µM. The “Ratio Tc/Tb (IC50 TcTryR / IC50 TbTryR)” value in test [5] turned out to be 2.5.

Take `CN(C)CCCN1c2ccccc2CCc2ccc(Cl)cc21` [Clomipramine]: the “extension of survival time” value in the test with African trypanosomiasis [9] is on record as “failed to extend survival time by even one day”.

Take `NC(=O)C1=CN([C@@H]2O[C@H](COP(=O)(O)OP(=O)(O)OC[C@H]3O[C@@H](n4cnc5c(N)ncnc54)[C@H](OP(=O)(O)O)[C@@H]3O)[C@@H](O)[C@H]2O)C=CC1` [NADPH]: the Michaelis constant (Km) at TbTryR was found to be 0.77 ± 0.01 µM.
